Measured values: paper PMC10082216 (Nature Communications, 2023)
Read-outs that look alike come from different tables or passages of the source.

Test: TD-6450 phase I clinical study (SAD/MAD): pharmacokinetics
Assay type: in vivo, human
Settings: human
Experimental: Primary and secondary outcomes were pre-defined as follows: Safety and tolerability as a primary outcome, pharmacokinetics as a secondary outcome. Safety and tolerability were evaluated using standard measures, including adverse event (AE) monitoring, clinical laboratory tests (hematology, serum chemistry, coagulation, and urinalysis), vital signs, physical examinations, and 12-lead electrocardiograms (ECGs). […]
This study was conducted in two parts, Part A (SAD) and Part B (MAD). For the Part A, the age of enrolled subjects ranged from 20 to 60 years, with a mean age range of 32.1 to 46.2 years. Most subjects were male (73 total subjects) and most were white (55 subjects) or black (22 subjects). For Part B of the study, ages ranged from 23 to 60 years with a similar mean age across treatment groups. Most subjects were male (25 total subjects) and all were either white (18 subjects) or black (12 subjects). For each part of the study, the mean body mass index (BMI) and creatinine clearance were similar across treatment groups. […] Part A: Healthy subjects were sequentially enrolled and randomly assigned to each dose cohort (up to 10 dose-ascending cohorts were planned, including a fed arm in the food effect cohort) to receive either a single dose of TD-6450 or placebo. For each dose cohort, 8 subjects were randomized in a 3:1 ratio (6 subjects received TD-6450 and 2 subjects received placebo). The starting dose of TD-6450 was 0.5 mg with a planned maximum dose of 1000 mg. Upon review of the 500-mg cohort PK data, the decision was made to not escalate to the 1000-mg cohort because of exposure saturation at ≥ 500 mg. The following doses were administered: 0.5 mg, 1.5 mg, 5 mg, 15 mg, 30 mg, 60 mg, 120 mg, 240 mg, and 500 mg. Part B: Healthy subjects were sequentially enrolled in 3 ascending dose cohorts (TD-6450 60 mg, 120 mg, and 240 mg) and randomly assigned to receive either TD-6450 or placebo as once daily doses for 14 days. For each dose cohort, 10 subjects were randomized in a 4:1 ratio (8 subjects received TD-6450 and 2 subjects received placebo). Blinded safety, tolerability, and available PK data after each dose cohort were reviewed by the Safety Data Review Committee (SDRC) before escalation to the next dosing cohort for both part A and B. Subjects of the clinical study were randomly assigned to each cohort. Randomizations codes were assigned to the subjects. All study subjects, study investigators, and the sponsor’s staff involved in the conduct of the study were blinded to treatment assignment. The only personnel who had access to the randomization code before database lock were: The pharmacist or pharmacy staff member who prepared drug or placebo capsules for administration to the subject according to the randomization code and the bioanalytical contract laboratory that analyzed the PK samples (plasma and urine).

Question: Which concentration at 144 h (female, plasma, oral, 15 mg, Female subjects, SAD arm NCT02022306, Dose 15.00, 144 Hours, read-out: Concentration) does the source give for `CNC(=O)N1C[C@@H](C)N(c2ccc(C(=O)Nc3ccc(-c4ccc(-c5c[nH]c([C@@H]6CCCN6C(=O)[C@@H](NC(=O)OC)C(C)C)n5)cc4)c(OC(F)(F)F)c3)cn2)C[C@@H]1C` [TD-6450] here?
Answer: 4 ng/mL

Question: What about the concentration at 168 h (female, plasma, oral, 15 mg, Female subjects, SAD arm NCT02022306, Dose 15.00, 168 Hours, read-out: Concentration) of the same compound?
Answer: 3.58 ng/mL

Question: What about the concentration at 3 h (female, plasma, oral, 30 mg, Female subjects, SAD arm NCT02022306, Dose 30.00, 3 Hours, read-out: Concentration) of the same compound?
Answer: 24.8 ng/mL

Question: What about the concentration at 4 h (female, plasma, oral, 30 mg, Female subjects, SAD arm NCT02022306, Dose 30.00, 4 Hours, read-out: Concentration) of the same compound?
Answer: 40.6 ng/mL

Question: And the concentration at 6 h (female, plasma, oral, 30 mg, Female subjects, SAD arm NCT02022306, Dose 30.00, 6 Hours, read-out: Concentration)?
Answer: 70.6 ng/mL

Question: And the concentration at 8 h (female, plasma, oral, 30 mg, Female subjects, SAD arm NCT02022306, Dose 30.00, 8 Hours, read-out: Concentration)?
Answer: 69.5 ng/mL

Question: And the concentration at 12 h (female, plasma, oral, 30 mg, Female subjects, SAD arm NCT02022306, Dose 30.00, 12 Hours, read-out: Concentration)?
Answer: 45.3 ng/mL

Question: What about the concentration at 15 min (female, plasma, oral, 30 mg, Female subjects, SAD arm NCT02022306, Dose 30.00, 15 Minutes, read-out: Concentration) of the same compound?
Answer: 0 ng/mL

Question: And the concentration at 24 h (female, plasma, oral, 30 mg, Female subjects, SAD arm NCT02022306, Dose 30.00, 24 Hours, read-out: Concentration)?
Answer: 34.1 ng/mL

Question: And the concentration at 48 h (female, plasma, oral, 30 mg, Female subjects, SAD arm NCT02022306, Dose 30.00, 48 Hours, read-out: Concentration)?
Answer: 22.3 ng/mL

Question: What about the concentration at 72 h (female, plasma, oral, 30 mg, Female subjects, SAD arm NCT02022306, Dose 30.00, 72 Hours, read-out: Concentration) of the same compound?
Answer: 16.1 ng/mL

Question: What about the concentration at 96 h (female, plasma, oral, 30 mg, Female subjects, SAD arm NCT02022306, Dose 30.00, 96 Hours, read-out: Concentration) of the same compound?
Answer: 10.8 ng/mL

Question: And the concentration at 120 h (female, plasma, oral, 30 mg, Female subjects, SAD arm NCT02022306, Dose 30.00, 120 Hours, read-out: Concentration)?
Answer: 9.27 ng/mL

Question: What about the concentration at 144 h (female, plasma, oral, 30 mg, Female subjects, SAD arm NCT02022306, Dose 30.00, 144 Hours, read-out: Concentration) of the same compound?
Answer: 6.93 ng/mL

Question: And the concentration at 168 h (female, plasma, oral, 30 mg, Female subjects, SAD arm NCT02022306, Dose 30.00, 168 Hours, read-out: Concentration)?
Answer: 5.12 ng/mL

Question: And the concentration at 1 h (female, plasma, oral, 60 mg, Female subjects, SAD arm NCT02022306, Dose 60.00, 1 Hour, read-out: Concentration)?
Answer: 7.46 ng/mL

Question: And the concentration at 2 h (female, plasma, oral, 60 mg, Female subjects, SAD arm NCT02022306, Dose 60.00, 2 Hours, read-out: Concentration)?
Answer: 114 ng/mL

Question: What about the concentration at 3 h (female, plasma, oral, 60 mg, Female subjects, SAD arm NCT02022306, Dose 60.00, 3 Hours, read-out: Concentration) of the same compound?
Answer: 70.5 ng/mL

Question: What about the concentration at 4 h (female, plasma, oral, 60 mg, Female subjects, SAD arm NCT02022306, Dose 60.00, 4 Hours, read-out: Concentration) of the same compound?
Answer: 94.5 ng/mL

Question: And the concentration at 6 h (female, plasma, oral, 60 mg, Female subjects, SAD arm NCT02022306, Dose 60.00, 6 Hours, read-out: Concentration)?
Answer: 109 ng/mL

Question: And the concentration at 8 h (female, plasma, oral, 60 mg, Female subjects, SAD arm NCT02022306, Dose 60.00, 8 Hours, read-out: Concentration)?
Answer: 87.4 ng/mL

Question: And the concentration at 12 h (female, plasma, oral, 60 mg, Female subjects, SAD arm NCT02022306, Dose 60.00, 12 Hours, read-out: Concentration)?
Answer: 60.5 ng/mL

Question: What about the concentration at 15 min (female, plasma, oral, 60 mg, Female subjects, SAD arm NCT02022306, Dose 60.00, 15 Minutes, read-out: Concentration) of the same compound?
Answer: 0 ng/mL

Question: And the concentration at 24 h (female, plasma, oral, 60 mg, Female subjects, SAD arm NCT02022306, Dose 60.00, 24 Hours, read-out: Concentration)?
Answer: 38.9 ng/mL

Question: What about the concentration at 30 min (female, plasma, oral, 60 mg, Female subjects, SAD arm NCT02022306, Dose 60.00, 30 Minutes, read-out: Concentration) of the same compound?
Answer: 0.74 ng/mL

Question: What about the concentration at 48 h (female, plasma, oral, 60 mg, Female subjects, SAD arm NCT02022306, Dose 60.00, 48 Hours, read-out: Concentration) of the same compound?
Answer: 29.3 ng/mL

Question: What about the concentration at 72 h (female, plasma, oral, 60 mg, Female subjects, SAD arm NCT02022306, Dose 60.00, 72 Hours, read-out: Concentration) of the same compound?
Answer: 22.4 ng/mL

Question: And the concentration at 96 h (female, plasma, oral, 60 mg, Female subjects, SAD arm NCT02022306, Dose 60.00, 96 Hours, read-out: Concentration)?
Answer: 17.2 ng/mL

Question: And the concentration at 120 h (female, plasma, oral, 60 mg, Female subjects, SAD arm NCT02022306, Dose 60.00, 120 Hours, read-out: Concentration)?
Answer: 12.8 ng/mL

Question: And the concentration at 144 h (female, plasma, oral, 60 mg, Female subjects, SAD arm NCT02022306, Dose 60.00, 144 Hours, read-out: Concentration)?
Answer: 11.1 ng/mL

Question: What about the concentration at 168 h (female, plasma, oral, 60 mg, Female subjects, SAD arm NCT02022306, Dose 60.00, 168 Hours, read-out: Concentration) of the same compound?
Answer: 8.61 ng/mL

Question: What about the concentration at 3 h (in vivo, 1.5 mg, Male subjects, SAD arm NCT02022306, Dose 1.50, 3 Hours, read-out: Concentration) of the same compound?
Answer: 1.48 ng/mL

Question: What about the concentration at 4 h (in vivo, 1.5 mg, Male subjects, SAD arm NCT02022306, Dose 1.50, 4 Hours, read-out: Concentration) of the same compound?
Answer: 1.92 ng/mL

Question: And the concentration at 6 h (in vivo, 1.5 mg, Male subjects, SAD arm NCT02022306, Dose 1.50, 6 Hours, read-out: Concentration)?
Answer: 1.07 ng/mL

Question: What about the concentration at 120 h (in vivo, 5 mg, Female subjects, SAD arm NCT02022306, Dose 5.00, 120 Hours, read-out: Concentration) of the same compound?
Answer: 1.07 ng/mL

Question: What about the concentration at 48 h (in vivo, 5 mg, Male subjects, SAD arm NCT02022306, Dose 5.00, 48 Hours, read-out: Concentration) of the same compound?
Answer: 1.81 ng/mL

Question: What about the concentration at 120 h (in vivo, 5 mg, Male subjects, SAD arm NCT02022306, Dose 5.00, 120 Hours, read-out: Concentration) of the same compound?
Answer: 1.48 ng/mL

Question: What about the concentration at 168 h (in vivo, 15 mg, Male subjects, SAD arm NCT02022306, Dose 15.00, 168 Hours, read-out: Concentration) of the same compound?
Answer: 2.59 ng/mL

Question: What about the concentration at 2 h (in vivo, 30 mg, Male subjects, SAD arm NCT02022306, Dose 30.00, 2 Hours, read-out: Concentration) of the same compound?
Answer: 8.22 ng/mL

Question: And the concentration at 30 min (in vivo, 120 mg, Male subjects, SAD arm NCT02022306, Dose 120.00, 30 Minutes, read-out: Concentration (ng/ml))?
Answer: 1.01 ng/mL

Question: And the concentration at 168 h (in vivo, 120 mg, Male subjects, SAD arm NCT02022306, Dose 120.00, 168 Hours, read-out: Concentration (ng/ml))?
Answer: 10.2 ng/mL

Question: And the concentration at 312 h (in vivo, 240 mg, Male subjects, SAD arm NCT02022306, Dose 240.00, 312 Hours, read-out: Concentration (ng/ml))?
Answer: 4.88 ng/mL

Question: And the “TD-6450 concentration” value (in vivo, 48 h)?
Answer: 107.00 ng/mL

Question: What about the “TD-6450 concentration” value (in vivo, 72 h) of the same compound?
Answer: 273.00 ng/mL

Question: And the “TD-6450 concentration” value (in vivo, 96 h)?
Answer: 123.00 ng/mL

Question: What about the “TD-6450 concentration” value (in vivo, 120 h) of the same compound?
Answer: 102.00 ng/mL

Question: And the “TD-6450 concentration” value (in vivo, 144 h)?
Answer: 74.40 ng/mL

Question: What about the “TD-6450 concentration” value (in vivo, 336 h) of the same compound?
Answer: 6.38 ng/mL

Question: What about the Cmax (plasma, oral, 60 mg, SAD 60 mg, read-out: Cmax Mean ± SD) of the same compound?
Answer: 123 ± 60.3 nM

Question: And the half-life (plasma, oral, 60 mg, SAD 60 mg, read-out: t1/2 Mean ± SD (converted))?
Answer: 61.4 ± 11.8 h

Question: What about the TD-6450 concentration (male, in vivo) of the same compound?
Answer: 0.00 ng/mL

Question: And the TD-6450 concentration (male, in vivo, 2 h)?
Answer: 179.00 ng/mL

Question: What about the TD-6450 concentration (male, in vivo, 3 h) of the same compound?
Answer: 273.00 ng/mL

Question: What about the TD-6450 concentration (male, in vivo, 4 h) of the same compound?
Answer: 303.00 ng/mL

Question: What about the TD-6450 concentration (male, in vivo, 6 h) of the same compound?
Answer: 309.00 ng/mL

Question: What about the TD-6450 concentration (male, in vivo, 12 h) of the same compound?
Answer: 216.00 ng/mL

Question: What about the TD-6450 concentration (male, in vivo, 24 h) of the same compound?
Answer: 144.00 ng/mL

Question: What about the TD-6450 concentration (male, in vivo, 48 h) of the same compound?
Answer: 90.40 ng/mL

Question: And the TD-6450 concentration (male, in vivo, 72 h)?
Answer: 61.10 ng/mL

Question: What about the TD-6450 concentration (male, in vivo, 96 h) of the same compound?
Answer: 40.80 ng/mL
